This is an account of results in US10245244B2, “Pharmaceutical formulations for the treatment of pulmonary arterial hypertension” (HEART BIOTECH PHARMA LIMITED, priority 2014, dated 2019).

For experiment [1], the system named is pulmonary arteries. In words: U46619 contractile responses of pulmonary arteries. To be noted: control mice (normoxic), FIG. 9a.
In experiment [2] the test system is aorta. In words: U46619 contractile responses of aorta. Conditions: control mice (normoxic), FIG. 9a.

For `CCCCC[C@H](O)/C=C/[C@@H]1[C@@H](C/C=C\CCCC(=O)O)[C@H]2CO[C@@H]1C2` [U46619, 9,11-Dideoxy-9α,11α-methanoepoxy prostaglandin F2α], the “contraction of the pulmonary artery” value in experiment [1] is “less contraction”. Besides, in experiment [2], the “contraction of the aorta” value is listed as “significant contraction”.
